Where two headings read alike, the source gives them in different places.
Assays:
[1] = biological target: T1, human 5HT1A-serotonergic receptor (Homo sapiens, UniProt P08908); experiment: Radioligand binding to recombinant 5-HT1A receptor ([3H]8-OH-DPAT, HeLa cell membranes); conditions: 1 nM [3H]8-OH-DPAT; Ki from IC50 by the Cheng equation; read-out: Ki (nM), binding affinity for 5HT1A receptor
T1 construct: expressed in transfected cells; host or cells: HeLa (human), stably transfected; membranes
T1 sequence (P08908 1-422): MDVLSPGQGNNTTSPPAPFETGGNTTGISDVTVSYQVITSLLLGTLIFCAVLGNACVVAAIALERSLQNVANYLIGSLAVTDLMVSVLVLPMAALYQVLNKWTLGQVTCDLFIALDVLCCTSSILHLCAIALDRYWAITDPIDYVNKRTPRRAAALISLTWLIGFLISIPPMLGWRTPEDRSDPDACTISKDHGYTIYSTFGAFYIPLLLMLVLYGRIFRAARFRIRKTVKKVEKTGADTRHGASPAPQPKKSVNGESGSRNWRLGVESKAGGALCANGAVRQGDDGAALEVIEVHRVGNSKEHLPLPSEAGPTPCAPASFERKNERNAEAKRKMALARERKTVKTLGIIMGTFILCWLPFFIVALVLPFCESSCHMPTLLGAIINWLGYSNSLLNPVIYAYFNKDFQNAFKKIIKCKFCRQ
Procedure, shortened: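 Membranes from HeLa cells stably expressing human 5-HT1A incubated 30 min at 30 °C with 1 nM [3H]8-OH-DPAT in 50 mM Tris pH 7.4, 2.5 mM MgCl2, 10 μM pargyline; non-specific binding with 10 μM 5-HT. Filtration read-out; IC50 by curve fitting, converted to Ki via Cheng-Prusoff.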

5-HT1A receptors = biological target: T2, 5-HT1A receptors (Rattus norvegicus, UniProt P19327); experiment: Inhibition of serotonergic syndrome (forepaw treading) induced by 8-OH-DPAT in rats (post-synaptic antagonism); type: in vivo; conditions: for inhibition at 10 mg/kg: rat
T2 construct: from tissue; host or cells: living male Sprague-Dawley rats (whole animal, behavioural read-out)
T2 sequence (P19327 1-422): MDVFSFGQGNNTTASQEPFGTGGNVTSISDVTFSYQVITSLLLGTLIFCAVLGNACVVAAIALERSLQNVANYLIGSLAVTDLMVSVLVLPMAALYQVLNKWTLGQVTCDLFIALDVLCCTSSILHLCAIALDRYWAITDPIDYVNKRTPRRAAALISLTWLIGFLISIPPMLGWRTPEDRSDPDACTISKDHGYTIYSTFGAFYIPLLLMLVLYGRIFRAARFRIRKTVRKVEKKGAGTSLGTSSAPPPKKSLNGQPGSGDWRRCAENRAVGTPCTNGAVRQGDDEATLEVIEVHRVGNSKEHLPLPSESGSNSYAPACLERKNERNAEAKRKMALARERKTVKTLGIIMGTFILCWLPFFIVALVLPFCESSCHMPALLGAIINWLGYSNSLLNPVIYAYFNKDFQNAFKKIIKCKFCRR
Description: The inhibitory effect of 5-HT1A-receptor antagonists on stereotyped forepaw treading induced in rats by subcutaneous injection of 8-OH-DPAT was evaluated by the method of Tricklebank (Tricklebank et al., Eur. J. Pharmacol., 117: 15, 1985) with minor modifications as described below.
Male Sprague-Dawley rats [Crl: CD® (SD) IGS BR] weighing 150-175 g from Charles River Italia were used. The animals were housed with free access to food and water and maintained on a forced 12-hour-light/12-hour-dark cycle at 22-24° C. of temperature. On the day of the experiment, the rats were placed singly in clear plastic containers, 10-15 minutes before oral administration of the vehicle or compounds to be tested. For evaluation of antagonistic activity, the compounds were administered 1 and 4 hours before induction of stereotypy by 8-OH-DPAT (1 mg/kg subcutaneously). Observation sessions lasted 30 seconds and began 3 minutes after 8-OH-DPAT treatment and were repeated every 3 minutes over a period of 15 minutes.
The appearance of the symptoms induced by postsynaptic stimulation of 5-HT1A receptors was noted, and the intensity was scored using an intensity scale in which: 0=absent, 1=equivocal, 2=present and 3=intense. Behavioural scores for treated rats were accumulated throughout the observation time (5 observation periods) and expressed as mean values of 4 rats/dose. Change in mean values of treated animals in comparison with control (vehicle) group, expressed as per-cent inhibition, was used to quantify the antagonistic activity.
In order to quantitate the potency of the compound of Example 24 in inhibiting the stereotypy (forepaw treading) induced by 8-OH-DPAT, an ED50 value (dose inhibiting by 50% the forepaw treading) was evaluated by means of linear regression using the least square method.

SMILES	Ki [1] [nM]	% Inhibition of forepaw treading, 1 h (5-HT1A receptors; 10 mg/kg p.o., 1 h before 8-OH-DPAT 1 mg/kg s.c.) [%]	% Inhibition of forepaw treading, 4 h (5-HT1A receptors; 10 mg/kg p.o., 4 h before 8-OH-DPAT 1 mg/kg s.c.) [%]	ED50 (dose inhibiting by 50% the forepaw treading) (95% CL), 1 hour (5-HT1A receptors; 1 hour after oral administration)	ED50 (dose inhibiting by 50% the forepaw treading) (95% CL), 4 hours (5-HT1A receptors; 4 hours after oral administration)	inhibition at 10 mg/kg (5-HT1A receptors; 10 mg/kg p.o., 1 h before 8-OH-DPAT 1 mg/kg s.c., read-out: % Inhibition of forepaw treading, 1 h) [%]	inhibition at 10 mg/kg (5-HT1A receptors; 10 mg/kg p.o., 4 h before 8-OH-DPAT 1 mg/kg s.c., read-out: % Inhibition of forepaw treading, 4 h) [%]
COc1ccccc1N1CCN(CCC(c2ccccc2F)C(C2CCCCC2)N(C)C(C)=O)CC1 (racemic) [Example 16, (RS,SR)- and (RS,RS)-N-{-1-Cyclohexyl-2-(2-fluorophenyl)-4-[4-(2-methoxyphenyl)piperazin-1-yl]butyl}-N-methylacetamide]	0.86	80	69	–	–	–	–
COc1ccccc1N1CCN(CC[C@@H](c2ccccc2F)[C@H](NC(=S)N(C)C)C2CCCCC2)CC1 (racemic) [Example 24, 3-{(RS,SR)-1-Cyclohexyl-2-(2-fluorophenyl)-4-[4-(2-methoxyphenyl)-piperazin-1-yl]butyl}-1,1-dimethylthiourea]	1.23	–	–	2.86 (2.12-3.8) mg/kg p.o.	3.67 (2.81-4.93) mg/kg p.o.	100	90
